This is an account of results in patent US12527782B2, “Use of hexokinase 2/mitochondria-detaching compounds for treating hexokinase-2 (HK2)-expressing cancers” (Vidac Pharma Ltd., priority 2016, dated 2026).

Molecules are shown by their SMILES. Like-named read-outs stand apart in the source and are kept apart here.

The test system of one series is Head & Neck HNXF 2205. Description: CFA, HNXF 2205. It is filed as cell-based, human. Particulars: PDX/CFA. The method, then:
(§1) CFA was performed by Charles River Laboratories (Freiburg, Germany) in 96-well plate format according to a modified two-layer soft agar assay. The origin of the tumor xenografts has been described (Fiebig et al. 1989, incorporated herein by reference). The list of tumors used in this study is detailed in Table 1.

Another series has as its system Lung (SCLC) LXFS 573. Description: CFA, LXFS 573. It is filed as cell-based, human. Particulars: PDX/CFA. The method, then: as §1
Series [1] has as its system Lung (NSCLC, adeno) LXFA 749. Description: CFA, LXFA 749. The series is classed as cell-based, human. Particulars: PDX/CFA. The method, then: as §1
In series [2] the test system is panel of 57 patient-derived tumors and cancer cell lines. Description: CFA panel of 57 patient-derived tumors and cancer cell lines. The series is classed as cell-based, human. The protocol: as §1
Series [3] can be described thus: Phase 1a single topical application, pharmacokinetics. It is filed as in vivo, human. Particulars: healthy volunteers. The protocol:
The Phase 1a clinical trial was a randomized, double-blinded, placebo-controlled, dose-escalation study in healthy older-adult volunteers to evaluate the safety, tolerability, and pharmacokinetics of a single topical dermal application of Formula C ointment. The study was conducted under FDA IND in a Phase 1 unit in the United States.
Fifteen healthy volunteers, aged 35-70, were sequentially assigned to 1 of 3 consecutive treatment cohorts (5%, 10% or 20% Formula C ointment, respectively). Five subjects were randomized in a double-blind fashion in each dose cohort: 4 subjects received active Formula C ointment and 1 received matched placebo (0% Formula C; vehicle control). The study ointment (250 mg) was applied once to a 25 centimeter squared area of skin on the forehead of each volunteer.

The test system of a further series is Breast MAXF 1322. Description: CFA, MAXF 1322. The series is classed as cell-based, human. Particulars: PDX/CFA. The method, then:
as §1

A further series relates to Head & Neck HNXF 536. Description: CFA, HNXF 536. It is filed as cell-based, human. Particulars: PDX/CFA. The protocol: as §1
The subject of another series is A431 cells. Description: Apoptosis: cleaved caspase-3 ELISA, A431 cells. It is filed as cell-based, human. Particulars: within 6 hours of treatment. The protocol:
Apoptosis induction was determined by semi-quantification of cytochrome C levels in the mitochondrial fraction analyzed by WB, following 2 hours of treatment with Formula C in A431 cells. Cleaved caspase-3 levels were analyzed following 6 hours of Formula C treatment in A431 cells, using PathScan® Cleaved Caspase-3 Sandwich ELISA kit (CST, Danvers, MA).

In series [4] the test system is Leukemia (AML) LEXFAM KG-1a. Description: CFA, LEXFAM KG-1a. The series is classed as cell-based, human. Particulars: Cell line/CFA. The protocol: as §1
A further series has as its system Head & Neck HNXF 908. Description: CFA, HNXF 908. The series is classed as cell-based, human. Particulars: PDX/CFA. The protocol: as §1
Series [5] concerns Lymphoma (Non-Hodgkin) LYXFNH HH (CTCL cell line HH). Kind of series: CFA / 3D clonogenic assay, LYXFNH HH. Particulars: for IC50: CTCL cell line HH. It is filed as cell-based, human. The method, then: as §1
The cell lines tested were from a large collection of patient-derived (PDX) and cell line-derived (CDX) human tumor xenografts growing subcutaneously in immunodeficient nude mice (Oncotest GmbH, a Charles River Division). The majority of the xenografts have been directly transplanted from patients and passaged in nude mice. The xenografts retain most of the characteristics of the parental patient tumors including histology and sensitivity to anti-cancer drugs, and efficacy tests in tumor-bearing nude mice largely replicate the response of the donor patient to standard anti-cancer drugs. The cell lines were from publicly available cell lines, including cell lines derived from solid tumors and hematological malignancies. In the clonogenic assay, the capacity of tumor cells for anchorage-independent growth was investigated as colony formation in soft agar in the presence and absence of test compounds. For the assay, tumor cells were harvested from in vitro culture, or tumor cell suspensions were prepared directly from human tumor xenografts growing in nude mice. The cell suspensions also contained tumor stem cells, which are believed to mediate the metastatic and infiltrative potential of a tumor. […]
Formula C was investigated for antitumor potency and tumor type selectivity ex vivo in 11 human tumor models (5 tumor cell lines, 6 xenograft-derived cell suspensions) of various histotypes. Tests were carried out using a 3D clonogenic assay in 96-well format using an image based read-out.
The clonogenic assay was carried out in a 96 well plate format using ultra low attachment plates. […] Cultures were incubated at 37° C. and 7.5% CO2 in a humidified atmosphere for 8 to 14 days and monitored closely for colony growth using an inverted microscope. […]

`CC/C=C\CC1C(=O)CCC1CC(=O)Oc1cccc2cccnc12` (stereo not shown) [Formula C]: the IC50 turned out to be 3960 nM with Head & Neck HNXF 2205; 1940 nM in the series on Lung (SCLC) LXFS 573; 1700 nM in series [1]; 1550 nM with Breast MAXF 1322; 1440 nM in the series with Head & Neck HNXF 536; 1920 nM in series [4]. Further, the IC50 in the series with Head & Neck HNXF 908 turned out to be 3880 nM; in [5] (clonogenic assay in soft agar, read-out: relative IC50, colony formation), 1220 nM; in [5] (clonogenic assay, concentration at T/C=50%, read-out: absolute IC50, colony formation), 1200 nM. For the same compound, the “share of tested cancer types with strong anti-proliferation effect (IC50<2 uM)” value in series [2] amounted to 70%. Further, the “systemic exposure of VDA-1102 or its major metabolite” value in series [3] is “No systemic exposure”. Besides, in the series on A431 cells, the “cellular levels of cleaved caspase-3” value is “increase in cellular levels of cleaved caspase-3”. Also, the “test concentration from which pronounced effects were observed” value in series [5] (clonogenic assay, cell lines) is no less than 3 µM.
